# Measurements reported in ChEMBL document CHEMBL3621198, “Probing cytochrome P450-mediated activation with a truncated azinomycin analogue” (Medchemcomm, 2015).
# pIC50: −log10 of the molar value.
# Experiments:
# CHO [1] = experiment: Cytotoxicity against CHO cells transfected with CYP1A1 assessed as growth inhibition after 96 hrs by MTT assay; format: functional, cell-based; conditions: Cricetulus griseus
# CHO [2] = experiment: Cytotoxicity against wild type CHO cells assessed as growth inhibition after 96 hrs by MTT assay; format: functional, cell-based; conditions: Cricetulus griseus
smiles,measurement,setting,value
CC1([C@@H](OC(=O)c2cccc3ccccc23)C(N)=O)CO1 (stereo partly specified),pIC50,CHO [1],5.05
same,pIC50,CHO [2],5.00
C=C(C)[C@@H](OC(=O)c1ccc(OC)c2ccc(OC)cc12)C(N)=O,pIC50,CHO [1],< 4.00
same,pIC50,CHO [2],< 4.00
CC1([C@@H](OC(=O)c2ccc(F)c3ccccc23)C(N)=O)CO1 (stereo partly specified),pIC50,CHO [1],5.70
same,pIC50,CHO [2],5.15
C=C(C)[C@@H](OC(=O)c1cccc2ccccc12)C(N)=O,pIC50,CHO [1],< 4.00
same,pIC50,CHO [2],< 4.00
COc1ccc2c(OC)ccc(C(=O)O[C@H](C(N)=O)C3(C)CO3)c2c1 (stereo partly specified),pIC50,CHO [1],5.52
same,pIC50,CHO [2],5.22
COc1ccc2c(OC)ccc(C(=O)O[C@@H](C(N)=O)C3(C)CO3)c2c1 (stereo partly specified),pIC50,CHO [1],5.05
same,pIC50,CHO [2],5.52
CC1([C@H](OC(=O)c2ccc(F)c3ccccc23)C(N)=O)CO1 (stereo partly specified),pIC50,CHO [1],5.52
same,pIC50,CHO [2],5.15
C=C(C)[C@@H](OC(=O)c1ccc(F)c2ccccc12)C(N)=O,pIC50,CHO [1],< 4.00
same,pIC50,CHO [2],< 4.00
